Experimental data reported in patent publication US20250345446A1 (Draupnir Bio ApS, priority 2022, published 2025).
Like-named read-outs stand apart in the source and are kept apart here. Residues, ends and D or L forms follow the SMILES beside them. *: point of attachment. Biotin = O=C1N[C@H]2[C@H](CS[C@H]2CCCCC(=O)*)N1

Tests used:
HEK293/sortilin cells [1] = assay: Remaining TNFalpha in conditioned media (ELISA); assay type: cell-based; details: after 72 h, 20 nM TNFalpha; added TNFalpha (100%) subtracted remaining TNFalpha (%)
Method: In different experiments, HEK293/sortilin cells were incubated with compound gradient series and 20 nM TNFalpha for up to 72 h. Following incubation, remaining TNFalpha in conditioned media was evaluated using human TNF-alpha Quantikine ELISA Kit (R&D systems, DTA00D).

[2] = tested on: HEK293 cells expressing full length sortilin receptor; assay: Cellular uptake of TNFalpha / Cy5-TNFalpha mediated by bifunctional compounds; assay type: cell-based; details: 24 h, 0.5 nM to 20 μM, leupeptin 80 μM vs without
Method: Cellular uptake of TNFalpha was investigated in HEK293 cells expressing full length sortilin receptor using a methodology analogous to example 3 with TNFalpha target.
Efficacy of individual bifunctional compounds was assessed as AUC of TNFalpha internalisation (Table 9)

[3] = target: T1, soluble ectodomain of sortilin-6his (Homo sapiens, UniProt Q99523, V650M); assay: MST binding to soluble ectodomain of sortilin-6his; details: MST, read-out: KD score, binding to sortilin (Kd)
T1 construct: the soluble ectodomain of sortilin-6his is measured by microscale thermophoresis (MST)
T1 sequence (Q99523 with tags, fused parts or gaps V650M): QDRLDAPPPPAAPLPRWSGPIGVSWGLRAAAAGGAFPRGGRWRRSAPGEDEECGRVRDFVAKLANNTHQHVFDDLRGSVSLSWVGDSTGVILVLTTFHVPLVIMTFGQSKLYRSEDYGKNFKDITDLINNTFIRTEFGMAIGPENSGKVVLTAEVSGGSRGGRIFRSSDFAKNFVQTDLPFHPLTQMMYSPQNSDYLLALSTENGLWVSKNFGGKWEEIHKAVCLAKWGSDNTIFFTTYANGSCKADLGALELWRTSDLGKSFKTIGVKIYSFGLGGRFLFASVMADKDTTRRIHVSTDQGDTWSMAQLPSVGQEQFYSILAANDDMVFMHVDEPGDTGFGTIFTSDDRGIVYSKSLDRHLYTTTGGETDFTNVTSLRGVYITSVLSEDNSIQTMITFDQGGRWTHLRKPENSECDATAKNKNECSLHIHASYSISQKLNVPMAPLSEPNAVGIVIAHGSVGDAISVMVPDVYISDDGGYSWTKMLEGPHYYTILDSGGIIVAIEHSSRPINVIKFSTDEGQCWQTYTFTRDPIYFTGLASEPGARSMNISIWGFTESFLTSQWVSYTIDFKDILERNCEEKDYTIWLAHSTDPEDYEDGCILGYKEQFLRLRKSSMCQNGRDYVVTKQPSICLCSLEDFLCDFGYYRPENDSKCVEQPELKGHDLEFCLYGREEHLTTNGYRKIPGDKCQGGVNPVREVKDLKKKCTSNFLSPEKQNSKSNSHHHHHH

HEK293/sortilin cells [4] = assay: Pulse-chase cellular degradation of TNFalpha (Western blot of lysates); assay type: cell-based; details: 24 h pre-incubation with compound 3 μM and TNFalpha 100 nM, chase 0 h to 24 h
Method: To monitor cellular degradation of target over time, a pulse-chase experiment was performed: HEK293/sortilin cells were pre-incubated with bifunctional compound (3 μM) and TNFalpha (100 nM) for 24 h before replacing culture supernatant with fresh media without target and bifunctional compound. Following replacement of media, cells were incubated for up to 24 h and TNFa levels was assessed at different timepoints by Western blotting of cell lysates.

TNFa plasma levels = assay: Mouse model of LPS induced acute systemic inflammation, plasma TNFa; assay type: in vivo; details: 10 or 30 mg/kg, 1 hour after LPS, C57BL/6J mice, p<0.0001 (one-way ANOVA)
Method: Degrader in vivo efficacy was investigated in a mouse model of lipopolysaccaride (LPS) induced acute systemic inflammation. Female C57BL/6J mice, 8 weeks of age were used in this model, and LPS was dosed as IP injection at a final concentration of 0.5 mg/kg in PBS at 10 ml/kg. 30 min to 3 hours prior LPS administration, animals were dosed with test compound (100-0.3 mg/kg/IP), dexamethasone (Dex) control (0.5 mg/kg/PO) or vehicle control (IP). Untreated (normal) animals were included as control for LPS induced TNFa expression. One hour post LPS administration, blood samples were collected and TNFa level was assessed by Cytometric Bead Array assay.

HEK293/sortilin cells [5] = assay: Lysosomal degradation of internalized AlexaFluor488-anti-DNP antibody (blotted lysates); assay type: cell-based; details: 6:30 h, AlexaFluor488-anti-DNP antibody 100 nM, compound 30 nM
Method: Intracellular levels of AlexaFluor488-anti-DNP antibody (Thermo Fisher) following internalization was investigated in HEK293/sortilin cells. Cells (250k) were seeded in 4-well plates in 250 μL culture medium as described in Example 3 and incubated overnight.
Culture medium was replaced with assay medium (as described in Example 3) with AlexaFluor488-anti-DNP antibody (Thermo Fisher) (100 nM) and BF005 (30 nM). Selected samples were added sortilin inhibitor, AF38469 (10 μM) or a lysosomal protease inhibitor, Leupeptin (80 μM) (Sigma Aldrich). Cells were incubated 3-6: 30 h in cell incubator before they were washed with dPBS (Bionordika) and medium was either replaced with assay medium without BF005 and AlexaFluor488-anti-DNP antibody and incubated in cell incubator for up to 24 h or cells were lysed. Following incubation, cells were lysed in lysis buffer, and lysates were subjected to SDS-PAGE before transfer of proteins to a nitrocellulose membrane as described in Example 4. AlexaFluor488 FI signal was detected using an iBright 1500 (Thermo Fisher). Following evaluation of FI signal, membrane was blocked and incubated with primary anti-β-actin antibody (1:3500) (Sigma Aldrich) and secondary anti-mouse-HRP antibody (1:3500) (Abcam) and developed and analyzed using ECL reagents (Cytiva) and iBright 1500 (Thermo Fisher), as described in example 4. […]

[6] = target: streptavidin, bifunctional compound and sortilin-6his (UniProt P22629+Q99523, V650M); assay: TR-FRET ternary complex formation streptavidin / bifunctional peptide / sortilin-6his; details: Table 2; […] incubation, HTRF ratio 665/620 nm
Method: In these experiments, the compounds of interest were titrated over 24-point in a 384-well TTP LVDS plate (SPT Labtech) to a final buffer composition of 50 mM Bis-Tris Propane pH 8, 50 mM NaCl, 0.05% Tween20, with or without 10% DMSO using a Mosquito LV pipetting robot (SPT Labtech).
The reaction was allowed to incubate for 2.5 hours at room temperature, at which point the HTRF signal ratio at 665/620 nm was determined using a plate reader (ClarioStar, BMG Labtech). All reactions were run in triplicates and data was represented as HTRF ratio as a function of bifunctional compound concentration.

HEK293/sortilin cells [7] = assay: Depletion of NA650 from cell culture supernatant; assay type: cell-based; details: after 48 and 72 hours, NA650 100 nM, 20 nM-5 μM
Method: HEK293/sortilin cells were cultured in culture media containing DMEM (Lonza) further supplemented with 10% fetal bovine serum (Sigma), 1% GlutaMax Supplement (Gibco), penicillin-streptomycin (Thermo Fischer) and selection antibiotics 100 μg/mL Zeocin (Invitrogen). 35k cells/well were seeded in poly-L-lysine coated 96-well plates (Perkin Elmer) and allowed to incubate for 16-24 h in cell incubator (37° C., humidified, 5% CO2). Culture media were discarded, and the cells were washed with assay medium containing FluoroBright DMEM (Gibco) supplemented with 10% fetal bovine serum (Sigma) and 1% GlutaMax Supplement (Gibco). The media were discarded and replaced with assay media or assay medium containing 100 nM NA650 (Invitrogen). For wells evaluating the bifunctional compounds, the assay medium also contained concentrations ranging from 20 nM to 5 μM. After an incubation period of up to 72 h in the cell incubator the media were harvested and the presence of NA650 were evaluated by fluorescence intensity (FI) measurements of DyLight650 using a fluorescence plate reader (BMG Labtech Clariostar).
HEK293/sortilin cells (35k cells/96-well) were seeded in culture media (as described in Example 3) and incubated for 24 h in cell incubator. Culture media were discarded, and the cells were washed with assay medium containing FluoroBright DMEM (Gibco) and supplements as described in Example 3, before incubation in assay medium containing 100 nM NA650 and small molecule bifunctional compounds (20 nM to 5 μM). After an incubation period of up to 72 h, the media were harvested and the presence of NA650 were evaluated by FI measurements of DyLight650 using a fluorescence plate reader (BMG Labtech Clariostar).

[8] = tested on: untransfected HEK239 cells; assay: Cellular uptake of target in untransfected HEK293 cells (Example 22); assay type: cell-based; details: HEK293 cells without sortilin, 3 h, 2 nM to 2 μM, corresponding targets
Source text: (§1) Cellular uptake of target was investigated in untransfected HEK239 cells and HEK293 cells expressing sortilin receptor in a methodology analogous to example 3.

HEK293/sortilin = assay: Cellular uptake of target in HEK293 cells expressing sortilin receptor (Example 22); assay type: cell-based; details: 3 h, 2 nM to 2 μM, corresponding targets
Source text: as §1

[9] = target: Sortilin-6His (Homo sapiens (Human)) (UniProt Q99523); assay: MST on labelled sortilin-6his ectodomain; KD score: +++ <25 nM, ++ 25-250 nM, + 250-2500 nM, 0 >2500 nM
Chain of Sortilin-6His (Homo sapiens (Human)) (Q99523 78-755 V650M limits assumed): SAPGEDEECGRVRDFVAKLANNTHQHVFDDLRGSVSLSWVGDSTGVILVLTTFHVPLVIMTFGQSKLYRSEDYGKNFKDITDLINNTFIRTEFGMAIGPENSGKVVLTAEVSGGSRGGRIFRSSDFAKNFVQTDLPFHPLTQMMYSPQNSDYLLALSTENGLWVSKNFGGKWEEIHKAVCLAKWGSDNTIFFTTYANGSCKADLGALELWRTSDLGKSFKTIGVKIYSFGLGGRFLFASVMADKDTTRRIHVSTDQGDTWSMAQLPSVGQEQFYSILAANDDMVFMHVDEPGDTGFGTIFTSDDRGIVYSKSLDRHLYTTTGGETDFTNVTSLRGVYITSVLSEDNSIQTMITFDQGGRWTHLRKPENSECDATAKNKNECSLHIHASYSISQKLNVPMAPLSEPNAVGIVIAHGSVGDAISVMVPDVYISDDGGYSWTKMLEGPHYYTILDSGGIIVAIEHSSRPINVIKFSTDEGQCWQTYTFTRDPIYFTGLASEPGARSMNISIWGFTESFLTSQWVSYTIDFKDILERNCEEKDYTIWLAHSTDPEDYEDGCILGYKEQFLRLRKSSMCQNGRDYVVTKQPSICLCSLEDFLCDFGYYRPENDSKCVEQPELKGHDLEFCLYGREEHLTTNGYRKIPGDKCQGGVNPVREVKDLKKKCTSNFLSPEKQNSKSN

Sortilin-6His [10] = target: T2, Sortilin-6His (Homo sapiens (Human), UniProt Q99523 78-755); assay: MST, fluorescent sortilin-6his (100 nM), peptide titrated
T2 construct: In MST it was labelled non-covalently with RED-tris-NTA; also called soluble ectodomain of sortilin-6his; fluorescent sortilin-6his
T2 sequence (Q99523 78-755 V650M limits assumed): as above

Sortilin-6His [11] = target: T2, Sortilin-6His; assay: MST on labelled sortilin-6his ectodomain; KD score: ++ <100 nM, + 100-2000 nM
Sortilin-6His [12] = target: T2, Sortilin-6His; assay: TR-FRET (HTRF) ternary complex streptavidin-d2 / biotin-peptide / sortilin-6His; AUC score: + <5000, ++ >5000
Sortilin-6His [13] = target: T2, Sortilin-6His; assay: MST on labelled sortilin-6his ectodomain
[14] = Table 4, small molecule bifunctional compounds

C[C@@H]1CN(c2ncc(-c3ccc4c(n3)N(Cc3cccnc3C#N)C(C)(C)C4=O)cn2)CCN1C(=O)CNC(=O)CCCCCCCCCCCNC(=O)c1cccc(Oc2ccc(C(=O)N[C@@H](CCC(C)(C)C)C(=O)O)cn2)c1 [BF042, (2S)-2-[[6-[3-[[12-[[2-[(2R)-4-[5-[1-[(2-cyano-3-pyridyl)methyl]-2,2-dimethyl-3-oxo-pyrrolo[2,3-b]pyridin-6-yl]pyrimidin-2-yl]-2-methyl-piperazin-1-yl]-2-oxo-ethyl]amino]-12-oxo-dodecyl]carbamoyl]phenoxy]pyridine-3-carbonyl]amino]-5,5-dimethyl-hexanoic acid]
Maximum clearance rates of TNFalpha from conditioned media (HEK293/sortilin cells [1]): 74.4% | cell associated FI signal with addition of leupeptin [2]: marked increases cell associated signal | Kd [3, 14]: 1 to 10 nM | TNFalpha bands in cell lysate over time (HEK293/sortilin cells [4]): barely detectable after 7 h

C[C@@H]1CN(c2ncc(-c3ccc4c(n3)N(Cc3cccnc3C#N)C(C)(C)C4=O)cn2)CCN1C(=O)CNC(=O)CCCCCCCCCNC(=O)c1cccc(Oc2ccc(C(=O)N[C@@H](CCC(C)(C)C)C(=O)O)cn2)c1 [BF043, (2S)-2-[[6-[3-[[10-[[2-[(2R)-4-[5-[1-[(2-cyano-3-pyridyl)methyl]-2,2-dimethyl-3-oxo-pyrrolo[2,3-b]pyridin-6-yl]pyrimidin-2-yl]-2-methyl-piperazin-1-yl]-2-oxo-ethyl]amino]-10-oxo-decyl]carbamoyl]phenoxy]pyridine-3-carbonyl]amino]-5,5-dimethyl-hexanoic acid]
Maximum clearance rates of TNFalpha from conditioned media (HEK293/sortilin cells [1]): 63.3% | Kd [3, 14]: < 1 nM

Cc1nc2cc(F)c(-c3cnc(N4CCN(C(=O)Cn5cc(COCCOCCOCC(=O)N6CCC(Oc7cccc(Oc8ccc(C(=O)N[C@@H](CCC(C)(C)C)C(=O)O)cn8)c7)CC6)nn5)[C@H](C)C4)nc3)nc2c(N[C@H](C)c2cc(C#N)ccc2F)c1Cl [BF094, (2S)-2-[[6-[3-[[1-[2-[2-[2-[[1-[2-[(2R)-4-[5-[7-chloro-8-[[(1R)-1-(5-cyano-2-fluoro-phenyl)ethyl]amino]-3-fluoro-6-methyl-1,5-naphthyridin-2-yl]pyrimidin-2-yl]-2-methyl-piperazin-1-yl]-2-oxo-ethyl]triazol-4-yl]methoxy]ethoxy]ethoxy]acetyl]-4-piperidyl]oxy]phenoxy]pyridine-3-carbonyl]amino]-5,5-dimethyl-hexanoic acid]
plasma TNFa compared to vehicle group (TNFa plasma levels): significant decrease | Kd [3, 14]: 1 to 10 nM

CNC(=O)c1cccc2c(Oc3ccc(C(=O)N[C@@H](CCC(C)(C)C)C(=O)O)cn3)cccc12 [SB001, (2S)-5,5-dimethyl-2-[[6-[[5-(methylcarbamoyl)-1-naphthyl]oxy]pyridine-3-carbonyl]amino]hexanoic acid]
Ig heavy chain (HC) band in lysates (HEK293/sortilin cells [5]): absent

CC(C)C[C@H](NC(=O)[C@H](CC(C)C)NC(=O)[C@H](CCC(N)=O)NC(=O)[C@H](Cc1ccccc1)NC(=O)CNC(=O)CNC(=O)[C@H](CO)NC(=O)CNC(=O)CNC(=O)CNC(=O)CNC(=O)[C@H](CO)NC(=O)CNC(=O)CNC(=O)CNC(=O)CNC(=O)[C@H](CO)NC(=O)CNC(=O)CNC(=O)CCCC[C@@H]1SC[C@@H]2NC(=O)N[C@@H]21)C(=O)O [SEQ ID NO.: 155] (Biotin-GGSGGGGSGGGGSGGFQLL-OH)
AUC score, TR-FRET measurements of ternary complex formation [6]: ++ (AUC > 5000) | NA650 FI signal in supernatant compared to SEQ ID NO.: 147 (in words) (HEK293/sortilin cells [7]): further reduction of target in cell culture supernatant | cell associated FI response to increasing degrader concentration [8]: No response | Kd ([3]; Table 1, biotin-linker-peptide bifunctional compounds): 100 to 2000 nM | cell associated FI response to increasing degrader concentration (HEK293/sortilin): bell-shaped FI response

H-LQLL-OH (as printed in Table 3 for SEQ ID NO.: 30) (peptide)
KD [9]: 25 to 250 nM

B1: Biotin-GGSGGGGSGGGGSGGRQLL-OH (peptide)
peptide: Biotin-GGSGGGGSGGGGSGGRQLL-OH
SMILES: CC(C)C[C@H](NC(=O)[C@H](CC(C)C)NC(=O)[C@H](CCC(N)=O)NC(=O)[C@H](CCCNC(=N)N)NC(=O)CNC(=O)CNC(=O)[C@H](CO)NC(=O)CNC(=O)CNC(=O)CNC(=O)CNC(=O)[C@H](CO)NC(=O)CNC(=O)CNC(=O)CNC(=O)CNC(=O)[C@H](CO)NC(=O)CNC(=O)CNC(=O)CCCC[C@@H]1SC[C@@H]2NC(=O)N[C@@H]21)C(=O)O
notes: also called degrader
Kd (Sortilin-6His [10]): 703 nM | KD (Sortilin-6His [11]): 100 to 2000 nM | AUC of TR-FRET (HTRF ratio vs compound concentration) for ternary complex formation (Sortilin-6His [12]): > 5000 auc

B2: Biotin-GGSGGGGSGGGGSGG-OH (peptide)
peptide: Biotin-GGSGGGGSGGGGSGG-OH
SMILES: O=C(O)CNC(=O)CNC(=O)[C@H](CO)NC(=O)CNC(=O)CNC(=O)CNC(=O)CNC(=O)[C@H](CO)NC(=O)CNC(=O)CNC(=O)CNC(=O)CNC(=O)[C@H](CO)NC(=O)CNC(=O)CNC(=O)CCCC[C@@H]1SC[C@@H]2NC(=O)N[C@@H]21
binding result (Sortilin-6His [13]): no binding
